Calls of active or inactive are those of the source. The calls are words filed in the database; no cut-off is given here. Square brackets hold non-standard residues; d marks the D form. Peptide text beside a SMILES is read from it. Pmp = N[C@@H](Cc1ccc(CP(=O)(O)O)cc1)C(=O)O
Tests used:
[1] = biological target: T1, Receptor-type tyrosine-protein phosphatase C (Homo sapiens, UniProt P08575); assay: Inhibition of CD45
T1 sequence (P08575 whole entry): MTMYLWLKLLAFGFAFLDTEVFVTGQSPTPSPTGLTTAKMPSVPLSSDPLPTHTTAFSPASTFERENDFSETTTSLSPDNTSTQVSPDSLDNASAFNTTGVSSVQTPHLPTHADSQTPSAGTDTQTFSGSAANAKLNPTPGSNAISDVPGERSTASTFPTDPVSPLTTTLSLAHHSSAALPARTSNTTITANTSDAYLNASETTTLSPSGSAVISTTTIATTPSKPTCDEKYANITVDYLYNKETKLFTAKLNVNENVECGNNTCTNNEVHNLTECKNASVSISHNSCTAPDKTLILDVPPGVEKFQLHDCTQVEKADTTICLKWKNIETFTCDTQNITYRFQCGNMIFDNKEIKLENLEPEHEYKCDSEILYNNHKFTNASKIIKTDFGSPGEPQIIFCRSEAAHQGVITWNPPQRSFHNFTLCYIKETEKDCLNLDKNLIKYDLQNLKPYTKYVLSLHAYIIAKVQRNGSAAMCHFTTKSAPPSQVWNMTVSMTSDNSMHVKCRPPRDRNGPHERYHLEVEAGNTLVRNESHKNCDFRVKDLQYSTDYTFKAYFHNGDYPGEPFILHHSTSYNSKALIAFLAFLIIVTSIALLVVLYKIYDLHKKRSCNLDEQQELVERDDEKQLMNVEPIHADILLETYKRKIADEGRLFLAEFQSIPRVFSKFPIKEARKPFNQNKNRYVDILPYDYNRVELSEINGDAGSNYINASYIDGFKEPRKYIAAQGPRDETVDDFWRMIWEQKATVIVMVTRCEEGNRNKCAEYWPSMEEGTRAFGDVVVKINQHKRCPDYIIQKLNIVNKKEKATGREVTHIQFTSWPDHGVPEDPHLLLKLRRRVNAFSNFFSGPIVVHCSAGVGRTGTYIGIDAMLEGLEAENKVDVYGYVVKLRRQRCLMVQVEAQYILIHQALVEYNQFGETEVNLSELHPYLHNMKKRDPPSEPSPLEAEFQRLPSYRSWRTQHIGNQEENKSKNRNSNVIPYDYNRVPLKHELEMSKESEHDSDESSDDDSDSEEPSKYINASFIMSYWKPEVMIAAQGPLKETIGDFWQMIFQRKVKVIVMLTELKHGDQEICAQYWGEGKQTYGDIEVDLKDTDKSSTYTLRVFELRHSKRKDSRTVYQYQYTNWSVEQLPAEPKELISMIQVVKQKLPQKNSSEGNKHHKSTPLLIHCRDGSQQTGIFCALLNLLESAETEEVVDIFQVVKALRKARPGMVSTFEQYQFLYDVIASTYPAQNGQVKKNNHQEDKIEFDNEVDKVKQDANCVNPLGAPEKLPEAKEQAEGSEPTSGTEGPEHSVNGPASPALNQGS

[2] = biological target: T2, Tyrosine-protein phosphatase non-receptor type 2 (Homo sapiens) (UniProt P17706); assay: Inhibition of TCPTP upto 120 uM
T2 sequence (whole entry): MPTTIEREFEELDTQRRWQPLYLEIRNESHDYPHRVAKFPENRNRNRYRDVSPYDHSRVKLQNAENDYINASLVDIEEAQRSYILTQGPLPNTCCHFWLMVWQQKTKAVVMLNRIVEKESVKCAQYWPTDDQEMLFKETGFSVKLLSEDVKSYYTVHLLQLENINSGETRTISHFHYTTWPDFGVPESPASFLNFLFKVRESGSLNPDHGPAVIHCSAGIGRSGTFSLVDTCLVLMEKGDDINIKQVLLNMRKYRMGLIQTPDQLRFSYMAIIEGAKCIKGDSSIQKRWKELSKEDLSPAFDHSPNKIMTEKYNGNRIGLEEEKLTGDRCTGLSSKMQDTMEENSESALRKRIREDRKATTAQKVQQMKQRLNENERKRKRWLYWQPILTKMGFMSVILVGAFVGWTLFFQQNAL

Compound: CC(=O)N[C@H](C(=O)N[C@@H](CCC(=O)O)C(=O)NCC(=O)N[C@@H](CCC(N)=O)C(=O)N[C@@H](Cc1ccc(CP(=O)(O)O)cc1)C(=O)N[C@@H](CCC(N)=O)C(=O)N1CCC[C@H]1C(=O)N[C@@H](CCC(N)=O)C(=O)N1CCC[C@H]1C(N)=O)[C@@H](C)O (Ac-TEGQ[Pmp]QPQP-NH2)
- IC50 [1]: 100 µM
- Activity [2]: inactive

— ChEMBL document CHEMBL1141489, “A highly efficient route to enantiomerically pure l-N-Bz-Pmp(t-Bu)2-OH and incorporation into a peptide-based protein tyrosine phosphatase inhibitor” (Bioorg Med Chem Lett, 2008)
